Results from the supplement of paper PMC11061612.

Columns and labels:
[1] = compound: C=CCn1c(=O)c2cnc(Nc3ccc(N4CCN(C)CC4)cc3)nc2n1-c1cccc(C(C)(C)O)n1 [AZD1775]; details: max 3 µM
Method in brief: (§1)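 Following 24 hours at 37°C and 5% CO2, cancer cell lines in 1536-well plates with 7.5 μl DMEM/F12 or RPMI and 10% FBS were dosed for 72 hours, final DMSO typically being 0.2%. CellTiter-Glo 2.0 luminescence, scaled between blank-well and DMSO-well means, gave the viability readout. Dose responses were fitted to a two-parameter logistic curve with a non-linear mixed effects model, and the single-agent IC50 was derived from this fit.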

[2] = compound: C[C@@H]1COCCN1C2=NC(=NC(=C2)C3(CC3)[S@](=N)(=O)C)C4=C5C=CNC5=NC=C4 [AZD6738]; details: max 10 µM
Method in brief: as §1

[3] = compound: Cc1nc(-c2cn3c(n2)-c2ccc(-c4cnn(C(C)(C)C(N)=O)c4)cc2OCC3)n(C(C)C)n1 [Taselisib]; details: max 10 µM
Method in brief: as §1

[4] = compound: Nc1ccn([C@@H]2O[C@H](CO)[C@@H](O)C2(F)F)c(=O)n1 [Gemcitabine]; details: max 0.3 µM
Method in brief: as §1

[5] = compound: CC(=O)O[C@H]1C(=O)[C@@]2(C)[C@H]([C@H](OC(=O)c3ccccc3)[C@]3(O)C[C@H](OC(=O)[C@H](O)[C@@H](NC(=O)c4ccccc4)c4ccccc4)C(C)=C1C3(C)C)[C@]1(OC(C)=O)CO[C@@H]1C[C@@H]2O [Paclitaxel]; details: max 3 µM
Method in brief: as §1

[6] = compound: Cc1cc2ncnn2cc1Nc1ncc2c(n1)n(C1CCOCC1)c(=O)n2C [AZD7648]; details: max 10 µM
Method in brief: as §1

[7] = compound: CN(CC[C@H](CSC1=CC=CC=C1)NC2=C(C=C(C=C2)S(=O)(=O)NC(=O)C3=CC=C(C=C3)N4CCC(CC4)[C@H](C5=CC=CC=C5C6=CC=C(C=C6)Cl)O)S(=O)(=O)C(F)(F)F)CCO [AZD4320]; details: max 1 µM
Method in brief: as §1

[8] = compound: CC1(C)CCC(CN2CCN(c3ccc(C(=O)NS(=O)(=O)c4ccc(NCC5CCOCC5)c([N+](=O)[O-])c4)c(Oc4cnc5[nH]ccc5c4)c3)CC2)=C(c2ccc(Cl)cc2)C1 [Venetoclax]; details: max 1 µM
Method in brief: as §1

[9] = compound: C1CC(C1)(C(=O)[O-])C(=O)[O-].N.N.[Pt+2] [Carboplatin]; details: max 10 µM
Method in brief: as §1

[10] = compound: N#Cc1cnc(Nc2cc(NC[C@H]3CNCCO3)c(C(F)(F)F)cn2)cn1 [SRA737]; details: max 10 µM
Method in brief: as §1

[11] = compound: Cn1cnc2c(F)c(Nc3ccc(Br)cc3Cl)c(C(=O)NOCCO)cc21 [Selumetinib]; details: max 10 µM
Method in brief: as §1

[12] = compound: Cc1c2c(nn1C)CSCc1cc(n(C)n1)CSc1cc(c3ccccc3c1)OCCCc1c(C(=O)O)n(C)c3c-2c(Cl)ccc13 [AZD5991]; details: max 1 µM
Method in brief: as §1

[13] = compound: CN(C)CCCOc1ccc(-c2ccc3ncc4c(c3c2)n(C2CCOCC2)c(=O)n4C)cn1 [AZD0156]; details: max 3 µM
Method in brief: as §1

[14] = compound: CC(=O)c1c(C)c2cnc(Nc3ccc(N4CCNCC4)cn3)nc2n(C2CCCC2)c1=O [Palbociclib]; details: max 10 µM
Method in brief: as §1

[15] = compound: COc1cc(Nc2ncc3c(n2)-c2ccc(Cl)cc2C(c2c(F)cccc2OC)=NC3)ccc1C(=O)O [Alisertib]; details: max 10 µM
Method in brief: as §1

[16] = compound: COc1cc2ncnc(Nc3ccc(F)c(Cl)c3)c2cc1OCCCN1CCOCC1 [Gefitinib]; details: max 10 µM
Method in brief: as §1

[17] = compound: CC1=C(C(=CC=C1)Cl)NC(=O)C2=CN=C(S2)NC3=CC(=NC(=N3)C)N4CCN(CC4)CCO [Dasatinib]; details: max 2 µM
Method in brief: as §1

[18] = compound: COc1cccc2c1C(=O)c1c(O)c3c(c(O)c1C2=O)C[C@@](O)(C(=O)CO)C[C@@H]3O[C@H]1C[C@H](N)[C@H](O)[C@H](C)O1 [Doxorubicin]; details: max 1 µM
Method in brief: as §1

[19] = compound: NC1(c2ccc(-c3nc4ccn5c(=O)[nH]nc5c4cc3-c3ccccc3)cc2)CCC1 [MK-2206]; details: max 10 µM
Method in brief: as §1

[20] = compound: C[C@@H](Oc1cc(-c2cnn(C3CCNCC3)c2)cnc1N)c1c(Cl)ccc(F)c1Cl [Crizotinib]; details: max 10 µM
Method in brief: as §1

[21] = compound: CCc1c2c(nc3ccc(O)cc13)-c1cc3c(c(=O)n1C2)COC(=O)[C@]3(O)CC [SN-38]; details: max 0.3 µM
Method in brief: as §1

[22] = compound: C[C@@H](c1ccc2nccn2c1)n1nnc2ncc(-c3cnn(C)c3)nc21 [Savolitinib]; details: max 1 µM
Method in brief: as §1

[23] = compound: CS(=O)(=O)CCNCc1ccc(-c2ccc3ncnc(Nc4ccc(OCc5cccc(F)c5)c(Cl)c4)c3c2)o1 [Lapatinib]; details: max 10 µM
Method in brief: as §1

[24] = compound: C[C@@H](Nc1cc(F)cc(F)c1)c1cc(C(=O)N(C)C)cc2c(=O)cc(N3CCOCC3)oc12 [AZD8186]; details: max 10 µM
Method in brief: as §1

[25] = compound: CC(C)n1c(=O)n(C)c2cnc3cc(F)c(-c4ccc(OCCCN5CCCCC5)nc4)cc3c21 [AZD1390]; details: max 0.3 µM
Method in brief: as §1

[26] = compound: CCN(CCO)CCCOc1ccc2c(Nc3cc(CC(=O)Nc4cccc(F)c4)[nH]n3)ncnc2c1 [AZD2811]; details: max 1 µM
Method in brief: as §1

[27] = compound: O=C(Nc1ccc2[nH]nc(-c3ccncc3)c2c1)[C@@H]1CCN(CC(=O)N2CCN(c3ccc(-c4ncccn4)cc3)CC2)C1; details: max 5 µM
Method in brief: as §1

[28] = compound: C1CN(CCC1(C(=O)N[C@@H](CCO)C2=CC=C(C=C2)Cl)N)C3=NC=NC4=C3C=CN4 [AZD5363]; details: max 10 µM
Method in brief: as §1

[29] = compound: COc1nnc2ccc(N3CCC(c4ccc(OCCN5CCN(C)C(=O)[C@H]5C)cc4)CC3)nn12 [AZD5153]; details: max 1 µM
Method in brief: as §1

[30] = compound: O=c1[nH]cc(F)c(=O)[nH]1 [5-Fluorouracil]; details: max 20 µM
Method in brief: as §1

[31] = compound: CC1=CN2[C@@H](C1)C=NC3=CC(=C(C=C3C2=O)OC)OCCCCCOC4=C(C=C5C(=C4)N=C[C@@H]6CC(=CN6C5=O)C)OC [SG3199]; details: max 0.001 µM
Method in brief: as §1

[32] = compound: COc1cc([C@@H]2c3cc4c(cc3[C@@H](O[C@@H]3O[C@@H]5CO[C@@H](C)O[C@H]5[C@H](O)[C@H]3O)[C@H]3COC(=O)[C@H]23)OCO4)cc(OC)c1O [Etoposide]; details: max 10 µM
Method in brief: as §1

[33] = compound: COc1cccc(OCCCN)c1-c1cc(Nc2cnc(C#N)cn2)n[nH]1 [Prexasertib]; details: max 1 µM
Method in brief: as §1

[34] = compound: O=C(c1cc(Cc2n[nH]c(=O)c3ccccc23)ccc1F)N1CCN(C(=O)C2CC2)CC1 [Olaparib]; details: max 10 µM
Method in brief: as §1

[35] = compound: CC(=O)Nc1cccc(-n2c(=O)n(C3CC3)c(=O)c3c(Nc4ccc(I)cc4F)n(C)c(=O)c(C)c32)c1 [Trametinib]; details: max 1 µM
Method in brief: as §1

Cell Line | IC50, cell viability 72 h [1] [µM] | IC50, cell viability 72 h [2] [µM] | IC50, cell viability 72 h [3] [µM] | IC50, cell viability 72 h [4] [µM] | IC50, cell viability 72 h [5] [µM] | IC50, cell viability 72 h [6] [µM] | IC50, cell viability 72 h [7] [µM] | IC50, cell viability 72 h [8] [µM] | IC50, cell viability 72 h [9] [µM] | IC50, cell viability 72 h [10] [µM] | IC50, cell viability 72 h [11] [µM] | IC50, cell viability 72 h [12] [µM] | IC50, cell viability 72 h [13] [µM] | IC50, cell viability 72 h [14] [µM] | IC50, cell viability 72 h [15] [µM] | IC50, cell viability 72 h [16] [µM] | IC50, cell viability 72 h [17] [µM] | IC50, cell viability 72 h [18] [µM] | IC50, cell viability 72 h [19] [µM] | IC50, cell viability 72 h [20] [µM] | IC50, cell viability 72 h [21] [µM] | IC50, cell viability 72 h [22] [µM] | IC50, cell viability 72 h [23] [µM] | IC50, cell viability 72 h [24] [µM] | IC50, cell viability 72 h [25] [µM] | IC50, cell viability 72 h [26] [µM] | IC50, cell viability 72 h [27] [µM] | IC50, cell viability 72 h [28] [µM] | IC50, cell viability 72 h [29] [µM] | IC50, cell viability 72 h [30] [µM] | IC50, cell viability 72 h [31] [µM] | IC50, cell viability 72 h [32] [µM] | IC50, cell viability 72 h [33] [µM] | IC50, cell viability 72 h [34] [µM] | IC50, cell viability 72 h [35] [µM]
A4-Fuk (B-Lymphoblastic Leukemia) | 0.11 | 2.21 | 0.234 | 0.00682 | 0.00317 | 5.15 | > 1 | 0.966 | > 10 | 0.844 | > 10 | 0.0776 | 2.42 | 4.24 | 0.207 | > 10 | > 2 | 0.237 | 2.77 | 2.21 | 0.0174 | > 1 | 7.57 | 5.86 | > 0.3 | > 1 | 0.771 | 2.06 | 0.0294 | 3.92 | > 0.001 | 0.321 | 0.00745 | > 10 | 0.282
COLO-668 (Small Cell Lung Carcinoma) | > 3 | 8.16 | 5.34 | 0.0413 | > 3 | > 10 | 0.319 | > 1 | > 10 | > 10 | > 10 | > 1 | > 3 | > 10 | > 10 | > 10 | > 2 | 0.329 | > 10 | > 10 | 0.00532 | > 1 | > 10 | > 10 | > 0.3 | > 1 | 4.48 | > 10 | > 1 | > 20 | > 0.001 | > 10 | 0.0637 | > 10 | 0.408
COLO-679 (Melanoma) | > 3 | 4.92 | > 10 | 0.0152 | 0.658 | > 10 | > 1 | > 1 | > 10 | 1.89 | 0.242 | > 1 | > 3 | > 10 | > 10 | > 10 | > 2 | 0.342 | > 10 | > 10 | 0.0461 | > 1 | > 10 | > 10 | > 0.3 | > 1 | 0.0906 | > 10 | > 1 | > 20 | > 0.001 | 7.18 | 0.0112 | > 10 | 0.0037
Ca-Ski (Cervical Carcinoma) | 0.657 | > 10 | 2.22 | 0.222 | 0.0238 | > 10 | > 1 | > 1 | > 10 | > 10 | > 10 | > 1 | > 3 | > 10 | 8.32 | > 10 | 0.558 | 0.355 | > 10 | > 10 | 0.0117 | > 1 | > 10 | > 10 | > 0.3 | > 1 | > 5 | > 10 | 0.867 | > 20 | > 0.001 | 8.85 | 0.0838 | > 10 | > 1
DU-145 (Prostate Carcinoma) | > 3 | > 10 | > 10 | > 0.3 | 0.187 | > 10 | > 1 | > 1 | > 10 | > 10 | > 10 | > 1 | > 3 | > 10 | > 10 | > 10 | > 2 | > 1 | > 10 | > 10 | 0.0473 | > 1 | > 10 | > 10 | > 0.3 | > 1 | > 5 | > 10 | > 1 | > 20 | > 0.001 | > 10 | 0.262 | > 10 | > 1
